Measurements: patent publication US20240262845A1, “PYRIDINIUM SALTS, METHODS OF MAKING, AND METHODS OF USE” (UNIVERSITY OF WYOMING, priority 2023, published 2024)
Counter-ions that a name gives are not always drawn.

What was measured:
[1] = Fluorescence lifetime and emission measurements; format: physicochemical; conditions: 10 μM in H2O, 375 nm excitation
Description: The emission spectra were generated by excitation of a 10 μM solution of either pyridinium salt 2a or pyridinium salt 2b in H2O. Analyses were performed at 375 nm excitation with an emission slit width of 5 nm and an excitation slit width of 5 nm. The emission wavelength was gathered from 400 nm to 600 nm.
FIGS. 9A-9D show fluorescence decay spectra of pyridinium salts 2a and 2b in selected solvents according to at least one embodiment of the present disclosure. Specifically, FIG. 9A is a fluorescence decay spectrum of pyridinium salt 2a in 1,2-dichloroethane, FIG. 9B is a fluorescence decay spectrum of pyridinium salt 2a in CH3CN, FIG. 9C is a fluorescence decay spectrum of pyridinium salt 2a in H2O, and FIG. 9D is a fluorescence decay spectrum of pyridinium salt 2b in H2O. The fluorescent decay spectra were generated with a 1-10 μM solution of pyridinium salt (10 μM for H2O and 1 μM for other solvents) using a GG420 long pass filter and a 375 nm excitation wavelength. The instrument response factor was measured using a highly diluted solution of LUDOX AS-30 colloidal silica in water and a ND1.0 filter. The concentration of LUDOX and the emission slit width were adjusted until the intensity of the instrument response function (IRF) was similar to the fluorescent decay intensity. The procedure given in the EasyLife X User's Manual was followed.

[2] = molecular target: T1, recombinant NPM1 C-terminal domain (residues 240-294) (Homo sapiens, UniProt P06748); assay: In vitro NPM1 C-terminal domain labeling (Western blot); format: biochemical; conditions: 10 μM NPM1, 100 μM probe, 100 μM glutathione, HEPES pH 7.5, about 440 nm, 15 min
T1 construct: 6×His (N, cleaved yes); made in house; host or cells: NiCo21(DE3) E. coli
Description: In vitro NPM1 C-terminal domain labeling and characterization: Labeling of recombinant NPM1 with the pyridinium salt 2b was performed with the following conditions: 10 μM NPM1 was treated with DMSO or 100 μM pyridinium salt 2b (2% DMSO) in 50 mM HEPES pH 7.5, 150 mM NaCl, 1.5 mM MgCl2, and 100 μM glutathione (GSH). Samples were irradiated at 450 nm (Kessil PR160L-440) at 100% intensity for 15 minutes at room temperature or 50° C. The reaction mixture was quenched with the addition of 4X LDS buffer (Invitrogen) containing 10 mM DTT (Pierce) and boiled for 10 minutes before resolving proteins on 4-12% Bis-Tris NuPAGE gels (Invitrogen), transferred onto a Trans-Blot Turbo Mini 0.2 μm nitrocellulose membrane (BioRad), blocked with 5% BSA in tris-buffered saline with Tween-20 (TBST), and incubated with HRP-linked anti-biotin (Cell Signaling Technology, #7075).

[3] = molecular target: T2, β2-Microglobulin (Homo sapiens, UniProt P61769); assay: Photochemical labeling of β2-microglobulin with pyridinium salt (General Procedure B, LC/MS); format: biochemical; conditions: trypsin digest
T2 construct: β2-microglobulin (Human Urine ≥98% (SDS-PAGE)); purchased Lee Biosolutions; host or cells: human urine
Description: General Procedure B: Photochemical Irradiation of Peptides and Proteins: To a 2 mL Pyrex LC/MS vial (Thermo model #03-391-39) were sequentially added solutions containing the desired biomolecule, glutathione (GSH), pyridinium salt, and ammonium acetate (NH4OAc). The resulting solution was diluted to a final volume of 500 μL and then sparged using nitrogen for a minimum of 30 minutes prior to irradiation. The actively sparging solution was then placed in an EvoluChem™ PhotoRedOx Box photoreactor that was equipped with a Kessil, PR160 427 nm LED Lamp and was then irradiated (100% lamp intensity) for the designated time at room temperature while maintaining active sparging. The resultant reaction mixture was then analyzed directly by LC/MS. Analysis of labeling outcomes using LC/MS was performed either by extracted ion chromatogram intensities (method A) or by integrating the area under the peaks associated with peptide content (method B). […]
Labeling of β2-Microglobulin with Pyridinium Salt 2a (β2-Microglobulin-2a Conjugate). […] The reaction mixture was directly analyzed by LC/MS using method A and was estimated to have proceeded with 88% conversion with a >20:1 mono:di labeled ratio and 7% glutathionylation of all unlabeled and labeled protein content. β2-Microglobulin-2a conjugate (retention time (Tr)=3.26-4.70 min). […]

T1 sequence (P06748 240-294): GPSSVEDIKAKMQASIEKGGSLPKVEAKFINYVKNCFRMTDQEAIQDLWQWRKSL
T2 sequence (P61769 21-119): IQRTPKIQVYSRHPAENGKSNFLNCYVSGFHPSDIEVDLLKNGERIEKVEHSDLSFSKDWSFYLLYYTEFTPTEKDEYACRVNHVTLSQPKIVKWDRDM

Compound	relative fluorescence quantum yield ΦF1 of pyridinium salt 2b: pyridinium salt 2a [1]	Western analysis of construct labeling [2]	Modified Trp [3]
COc1ccc2cc(-c3cc(C)[n+](N(C)C(=O)OCCCCC[C@H]4SC[C@H]5NC(=O)N[C@H]54)c(C)c3)ccc2c1 (stereo in doubt) [pyridinium salt 2b, 4-(6-methoxynaphthalen-2-yl)-2,6-dimethyl-1-(methyl(((5-((3aR,4R,6aS)-2-oxohexahydro-1H-thieno[3,4-d]imidazol-4-yl)pentyl)oxy)carbonyl)amino)pyridin-1-ium tetrafluoroborate]	3.3	photo-dependent labeling	–
COC(=O)N(C)[n+]1c(C)cc(-c2ccc3cc(OC)ccc3c2)cc1C [pyridinium salt 2a, 1-((methoxycarbonyl)(methyl)amino)-4-(6-methoxynapthalen-2-yl)-2,6-dimethylpyridin-1-ium tetrafluoroborate]	–	–	Trp-60
